We go through 5 molecules from patent US9056914B2, “Anticancer derivatives, preparation thereof and therapeutic use thereof” (priority 2010, dated 2015).

Molecules are shown by their SMILES. pIC50: −log10 of the molar value.

Common to all, as to type: cell-based
The test system of one assay is MDA-A1 cells. The assay can be described thus: Inhibition of proliferation of MDA-A1 cells by tomaymycin dimers (14C-thymidine incorporation). Conditions: MDA-A1, 3 days culture, 14C-thymidine incorporation at 96 h; read-out: Inhibition of proliferation (14C-thymidine pulse at 96 h) IC50 MDA-A1. The protocol:
(§1) Evaluation of the Inhibition of Proliferation of the Cell Lines MDA-MB-231, MDA-A1 and HCT116 with the Compounds of Formula (IA) with RCG1=—SZa (Za=SMe) or RCG1=—C(═O)ZbRb (ZbRb=OMe)
(§2) MDA-MB-231, MDA-A1 or HCT116 cells in their exponential growth phase were trypsinized and resuspended in their respective culture medium (DMEM/F12 Gibco #21331, 10% FCS Gibco #10500-056, […] Glutamine Gibco #25030 for the MDA cells; DMEM Gibco #11960, 10% FCS Gibco #10500-056, 2 mM Glutamine Gibco #25030 for the HCT116 cells). The cell suspension was seeded in Cytostar 96-well culture plates (GE Healthcare Europe, #RPNQ0163) in the complete culture medium containing serum to a density of 5000 cells/well (MDA-MB-231, MDA-A1, HCT116). After incubation for 4 hours, successive dilutions of the tomaymycin dimers were added to the wells in triplicate for each concentration. The cells were cultured for 3 days at 37° C. under an atmosphere of 5% CO2 in the presence of the cytotoxic agents. On the fourth day, 10 μl of a solution of ^14C-thymidine (0.1 μCi/well, Perkin Elmer #NEC56825000) were added to each well. The incorporation of ^14C-thymidine was measured 96 hours after the start of the experiment with a Microbeta radioactivity counter (Perkin Elmer). The data are expressed in the form of a percentage of survival by determining the ratio between the Count obtained with the cells treated with the cytotoxic agents and that obtained with the cells of the control wells (treated with the culture medium alone).

The subject of another assay is HCT116 cells. The assay can be described thus: Inhibition of proliferation of HCT116 cells by tomaymycin dimers (14C-thymidine incorporation). The settings on record: Homo sapiens, HCT-116; HCT116, 3 days culture, 14C-thymidine incorporation at 96 h; read-out: Inhibition of proliferation (14C-thymidine pulse at 96 h) IC50 HCT116. On the procedure:
as §1, §2
For orientation: Incorporation of labelled thymidine or its analogues reports DNA synthesis.

In another assay the test system is MDA-MB-231 cells. The assay is described as follows: Inhibition of proliferation of MDA-MB-231 cells by tomaymycin dimers (14C-thymidine incorporation). The settings on record: Homo sapiens, MDA-MB231, 3 days culture, 14C-thymidine incorporation at 96 h, read-out: Inhibition of proliferation (14C-thymidine pulse at 96 h) IC50 MDA-MB231. On the procedure:
as §1, §2

Take `C/C=C1\C[C@H]2C=Nc3cc(OCc4cc(OCCN(CCOCCOCCOC)CC(C)(C)SSC)cc(COc5cc6c(cc5OC)C(=O)N5C/C(=C/C)C[C@H]5C=N6)n4)c(OC)cc3C(=O)N2C1`: the pIC50 was 7.79 in the assay with MDA-A1 cells, 10.21 with HCT116 cells and 9.89 in the assay with MDA-MB-231 cells.
For `C/C=C1\C[C@H]2C=Nc3cc(OCc4cc(OCCN(CCCC(=O)OCC)CCOCCOCCOC)cc(COc5cc6c(cc5OC)C(=O)N5C/C(=C/C)C[C@H]5C=N6)n4)c(OC)cc3C(=O)N2C1` the same measures were 8.46, 10.74 and 10.39.
Take `C/C=C1\C[C@H]2C=Nc3cc(OCc4cc(OCCN(CCOCCOCCOC)CCC(=O)OC)cc(COc5cc6c(cc5OC)C(=O)N5C/C(=C/C)C[C@H]5C=N6)n4)c(OC)cc3C(=O)N2C1`: the pIC50 is 7.75 in the assay with MDA-A1 cells, 9.63 in the assay with HCT116 cells and 9.42 in the assay with MDA-MB-231 cells.
For `C/C=C1\C[C@H]2C=Nc3cc(OCc4cc(OCCN(CCOCCOCCN5CCOCC5)CC(C)(C)SSC)cc(COc5cc6c(cc5OC)C(=O)N5C/C(=C/C)C[C@H]5C=N6)n4)c(OC)cc3C(=O)N2C1` the same measures were 7.58, 10.32 and 10.09.
Taken in the same sequence, the figures for `C/C=C1\C[C@H]2C=Nc3cc(OCc4cc(OCCN(CCCC(=O)OCC)C(=O)CCOCCOCCOCCOC)cc(COc5cc6c(cc5OC)C(=O)N5C/C(=C/C)C[C@H]5C=N6)n4)c(OC)cc3C(=O)N2C1` were < 7.30, 8.30 and 8.25.
